Experimental data: patent US11365181B2, “P-phenylenediamine derivative as potassium channel regulator and preparation method and medical application thereof” (Shanghai Zhimeng Biopharma, Inc., priority 2018, dated 2022)

Columns and labels:
[1] = molecular target: KCNQ2 potassium channel (CHO-KCNQ2 cells) (Homo sapiens (Human), UniProt O43526); assay: Activity test of potassium ion channel opener (FDSS/μCELL detection, FluxOR potassium ion channel assay); assay type: cell-based; details: CHO-KCNQ2 cells, FluxOR fluorescence, FDSS/μCELL
Chain of KCNQ2 potassium channel (CHO-KCNQ2 cells) (O43526 whole entry): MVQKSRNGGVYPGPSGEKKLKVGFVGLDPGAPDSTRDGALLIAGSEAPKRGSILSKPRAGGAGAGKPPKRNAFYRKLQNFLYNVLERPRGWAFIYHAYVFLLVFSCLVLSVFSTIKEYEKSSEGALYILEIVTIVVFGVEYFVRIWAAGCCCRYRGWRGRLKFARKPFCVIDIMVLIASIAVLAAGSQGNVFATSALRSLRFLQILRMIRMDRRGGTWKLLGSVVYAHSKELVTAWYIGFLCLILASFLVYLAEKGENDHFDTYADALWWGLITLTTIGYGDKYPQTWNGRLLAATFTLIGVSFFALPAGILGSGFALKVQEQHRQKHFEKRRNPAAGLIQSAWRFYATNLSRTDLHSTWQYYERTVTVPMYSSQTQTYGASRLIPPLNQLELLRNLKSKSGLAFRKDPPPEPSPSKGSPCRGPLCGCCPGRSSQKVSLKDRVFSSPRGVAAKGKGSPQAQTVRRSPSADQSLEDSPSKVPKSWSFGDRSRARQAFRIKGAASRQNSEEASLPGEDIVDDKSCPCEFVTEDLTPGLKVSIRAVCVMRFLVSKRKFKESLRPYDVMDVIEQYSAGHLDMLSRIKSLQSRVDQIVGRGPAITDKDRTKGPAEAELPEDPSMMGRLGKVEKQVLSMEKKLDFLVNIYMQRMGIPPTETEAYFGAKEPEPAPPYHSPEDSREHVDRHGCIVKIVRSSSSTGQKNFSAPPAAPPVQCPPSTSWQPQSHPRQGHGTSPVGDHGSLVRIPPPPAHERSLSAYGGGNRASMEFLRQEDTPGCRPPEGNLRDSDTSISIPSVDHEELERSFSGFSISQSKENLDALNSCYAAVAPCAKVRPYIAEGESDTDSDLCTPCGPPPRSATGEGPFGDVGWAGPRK
Description: Activity Test of Potassium Ion Channel Opener (FDSS/ρCELL Detection)
Cell preparation: CHO-KCNQ2 cells were cultured in a 175 cm^2 culture flask, and when the cells was grown to a density of 60-80%, the culture medium was removed, washed with 7 mL PBS (Phosphate Buffered Saline) once, then 3 mL 0.25% Trypsin was added to digest. After the digestion was completed, 7 mL culture medium (90% DMEM/F12+10% FBS+500 μg/mL G418) was added to neutralize, centrifugated for 3 minutes at 800 rpm. The supernatant was aspirated, then 5 mL culture medium was added to resuspend, and then the cells were counted.
Cell plating: The density to 3×10^4/well was adjusted according to the results of cell counting. After standing at room temperature for 30 minutes, the cells were placed in a 37° C. CO2 incubator and incubated overnight for 16-18 hours. The cell density reached about 80%.
Fluorescent dye incubation: The cell culture medium was discarded, 80 μL/well loading buffer was added, and the cells were incubated in dark at room temperature for 60 minutes.
Compound incubation: the loading buffer was discarded, 80 μL/well prepared compound solution was added, incubated at room temperature and in dark for 20 minutes.
Fluorescence data collection: FDSS/μCELL instrument for real-time fluorescence is used for signal recording, wherein excitation wavelength was 480 nm, emission wavelength was 540 nm, and signals were recorded 1 times per second, after baseline was recorded for 10 seconds, the addition of 20 μL/well stimulation buffer was started, and then the signal was continuously record until the end of 180 seconds.
loading buffer: 10 mL/plate, the preparation method was as follows:
Test buffer sample: 100 mL/plate, the preparation method was as follows:
Stimulation buffer: 5 mL/plate, the preparation method was as follows:
The above buffer was from a commercially available kit, the kit name was FluxOR potassium ion channel assay, the manufacturer's brand was Invitrogen, the article number was F10017, the lot number was 913728.
20 mM DMSO compound mother liquor was prepared, 10 μL of 20 mM compound mother liquor was took and added into 20 μL DMSO solution, serially diluted 3 times to 8 intermediate concentrations; then the middle concentration of the compound was took to the test buffer, 200 times dilution to get the final concentration to be tested, 80 μL was took and added to the test plate.
The highest test concentration was 100 μM, followed by […], 33.33, 11.11, 3.70, 1.23, 0.41, 0.137, 0.045 μM, total 8 concentrations. Each concentration 3 replicate holes.
This concentration of DMSO had no effect on the KCNQ2 potassium channel.
Experimental data was analyzed by Excel 2007 and GraphPad Prism 5.0 software, and the ratio of 180 seconds was calculated to calculate the excitement effect. The excitement effect of the compound is calculated by the following formula: […]
Environment: Temperature about 25° C.
Reagent: FluxOR™ Detection Kit (Invitrogen, Cat #[…])
The experimental data in the report might meet the following criteria: Z′ Factor>0.5
2. Determination Results: See Table 1 for Details, where the Smaller EC50 was, the Higher the Activity of the Corresponding Compound was.
References for the above test methods:
(2) Jinfeng Yue et al. Acta Pharmacologica Sinica, 2016, 37:105-110.

[2] = Cerebral blood ratio of compound A in previous studies; assay type: in vivo; details: brain/blood
Excerpt: It can be seen from the results in Table 4 that after oral administration of compounds 03043 and 03044 to male SD rats, they have a good cerebral blood ratio (1.0-2.4) at each time point.

Cc1cc(N2CCc3sc(Cl)cc3C2)cc(C)c1NC(=O)CC(C)(C)C [Compound A]
EC50 [1]: 65 nM | Kp at 2 h ([2]; at 2 h): 0.56 | Kp at 4 h ([2]; at 4 h): 0.46 | Kp ([2]; overall): ~0.5
